Consider 12 compounds from US12310964B2, “Compositions and methods for the treatment of Lowe Syndrome” (Purdue Research Foundation, priority 2020, dated 2025).

Series [1] concerns LS patient cells. The series can be described thus: Ciliogenesis assay. It counts as cell-based, Human. The settings on record: serum starvation. As to the method:
Cells were seeded on glass cover slips and grown for 24 h in complete media. Then media was replaced by 0.1% serum DMEM (starvation media) containing vehicle or the drug to induce ciliogenesis for the indicated times. Cells were then fixed in 4% formaldehyde—PBS for 10 min and immuno-labeled with anti-acetylated tubulin antibody (see Table 2). At least 50 cells were imaged for every experiment and experiments were repeated at least thrice. The fraction of cells displaying cilia and cilia length were determined as described previously (Coon et al. (2012), supra).

In the next series the test system is mTOR pathway in LS cells. The series can be described thus: Western blotting of PI3K/Akt/mTOR pathway. The series is classed as cell-based, Human. As to the method:
Normal and LS cells were seeded on 100 mm plates and grown to 60-70% confluency in complete media. Then media was exchanged with 0.1% serum DMEM media with DMSO or 10 nM rapamycin for 12 hrs. The cells were washed twice with ice-cold PBS, collected by scraping cells in 200 μl/plate of lysis buffer (25 mM HEPES-KOH, pH7.4, 250 mM NaCl, 1% Triton-X-100 supplement with phosphatase and protease inhibitors), and lysed by passing the cells 10 times through a 26G1/2 needle. The lysates were centrifuged at 14,000×g for 20 min at 4° C., and the supernatant fractions were collected. The samples were analyzed by SDS-PAGE using 7% or 10% polyacrylamide gels and transferred to nitrocellulose membranes. The membranes were blocked with 5% skim milk in PBST (1× phosphate-buffered saline with Tween® detergent) and immunoblotted with the indicated primary and HRP-conjugated secondary antibodies.
The activation of the Akt and mTOR signaling pathways in LS cells treated or not with rapamycin was examined. Cell lysates were prepared, resolved by SDS-PAGE and the presence of phosphorylated and dephosphorylated key elements of the Akt and mTOR pathways were investigated by Western blotting with specific antibodies (FIG. 5D).
(Immunoblotting shows a protein as a band on a membrane.)

Series [2] deals with LS patient cells. The series is described as follows: Cell spreading assay after a predetermined time-point (cell area). It counts as cell-based, Human. The following applies: for LS cell spreading phenotype: LS patient fibroblasts, 30 min after seeding on fibronectin. As to the method:
Two approaches to monitor cell spreading were used: after a predetermined time-point and at multiple time points.
1) Spreading after a Predetermined Time-Point.
(§1) Human dermal fibroblasts (12 h after seeding) were treated with the indicated drug (or vehicle) in 0.1% serum for the indicated time. After drug treatment, the cells were lifted with 20 mM EDTA (ethylenediaminetetraacetic acid) in PBS (phosphate-buffered saline), pelleted at 300×g for 5 min and resuspended in 1% serum in the presence of drug or vehicle. Cell suspensions were then set in a rotator for 1 hour before seeding them on fibronectin-coated coverslips for 30 min, undisturbed, to allow attachment and spreading. After spreading, coverslips were gently rinsed with PBS and fixed in 4% formaldehyde for 10 min at room temperature. Cells were stained with rhodamine—phalloidin and imaged by epifluorescence microscopy. At least 50 cells were quantified per experiment by tracing and measuring cell areas by using the magic wand tool in ImageJ software (National Institutes of Health (NIH), Bethesda, MD, USA).
(§2) Cell spreading on fibronectin-coated surfaces of cells treated with RhoA modulators in comparison to untreated cells was observed. Cells were fixed and stained with fluorescently labeled-phalloidin after 30 min spreading time at 37° C. Following imaging, cell area measurements were performed.

The subject of a further series is Normal fibroblasts. The description is as above. The settings on record: 30 min after seeding on fibronectin. It counts as cell-based, Human. The procedure: as §1, §2
The next series concerns normal cells. The series is described as follows: Cell adhesion by time-lapse microscopy. The series is classed as cell-based, Human. As to the method:
Human dermal fibroblasts were treated as described above, seeded on fibronectin-coated LabTek chambers, and allowed to attach and spread. Cells were imaged at intervals of 10 min after seeding for 8 h using 20× objective in a Zeiss Axiovert inverted microscope. Number of detaching cells was quantified every 10 min up to the first hour by using the cell counter tool in ImageJ (NIH). To determine spreading kinetics, individual cells were tracked in each time lapse image and were scored from 1-5 based on general cell morphology. Briefly, cells that were just attached and looked circular with no protrusions or visible extensions received a score of 1. Cells with needle-like (filopodia) projections were scored 2, cells with lamellopodia-like extensions were scored 3, cells with more extended lamellopodia-like extensions and increased cell area were given a score of 4, and a further increase in cell area, often accompanied by isotropic spread morphology, was given a score of 5. Alternatively, cells were treated as described above and allowed to attach on fibronectin-coated dishes. Immediately after seeding, the cells were imaged with a 10× objective simultaneously using up to 3 Cytosmart Imaging Systems (Lonza, Basel, Switzerland) at intervals of 30 s for 2 h. Number of cells attached was quantified every 10 min up to the first hour using the Cell Counter tool in ImageJ software (NIH).

Series [3] has as its system LS patient cells. The series can be described thus: Viability/toxicity assessment (cell counting, morphology, MTT). It counts as cell-based, Human. The settings on record: for toxicity (viability and stress-induced changes in morphology): LS cells after exposure to statins. As to the method:
Cells were incubated with the indicated drugs for the specified times at different concentrations as described in low serum (0.1%) media to avoid substantial protein-mediated drug sequestration. In addition to cell counting post-treatment, a sample of cells seeded on fibronectin-coated coverslips was fixed and stained with fluorescein isothiocyanate (FITC)-phalloidin and DAPI (4′,6-diamidino-2-phenylindole) for cell morphology inspection. Viability was monitored by performing MTT (3-(4,5-dimethylthiazol-2-yl)-2,5-diphenyltetrazolium bromide) assays as follows: Following treatment of cells (in triplicates) with indicated drugs at different concentrations for specified times, media were aspirated and replaced with MTT solution (freshly prepared at 0.5 mg/ml in complete media) and incubated for 1.5 h. Additionally, a blank control with only MTT reagent containing no cells was also prepared. Following incubation, solution was aspirated and MTT was immediately solubilized using 1 mL DMSO (dimethylsulfoxide) (per well) by gentle pipetting. Absorbance values of solubilized MTT solution from the different wells were measured at 570 nm using a spectrophotometer.

Another series relates to HK2 OCRL1 K.O. cells. The series can be described thus: Indirect immunofluorescence for lysosomes (Lamp2, autolysosomes). The series is classed as cell-based, Human. The following applies: rapamycin (10 nM) or WYE (1 μM). The procedure: Following treatment with drugs, cells were washed and fixed with 4% formaldehyde-PBS for 10 min and immune-labeled for LAMP2 (lysosome-associated membrane protein 2). Random fields were imaged using a Zeiss Axiovert inverted microscope using a 40× objective with constant fluorescence exposure times.

The conditions of series [4]: current approved rapamycin treatments; cited from earlier work.
Series [5] deals with HK2 and HEK293T OCRL1 K.O. cells. The series can be described thus: Cell spreading assay in kidney knock-out cells. It counts as cell-based, Human. The settings on record: HK2 and HEK293T OCRL1 K.O. vs wild-type. The procedure: Normal (GM07492) and LS primary dermal fibroblasts (GM01676 and GM03265) were obtained from the NIHGMS Human Genetic Cell Repository (Coriell Institute for Medical Research, Camden, NJ, USA). Cells were maintained in Dulbecco's Modified Eagle Medium (DMEM), streptomycin/penicillin, 2 mM L-glutamine and 15% fetal bovine serum (FBS) at 37° C. in a 5% CO2 incubator. When needed, cells were transferred to fibronectin-coated surfaces (plates or coverslips) prepared by incubation with 10 μg/mL fibronectin for 2 h at 37° C. Normal human proximal tubule epithelial (HK2) and human embryonic kidney epithelial 293T (HEK293T) cells obtained from ATCC were grown in DMEM, streptomycin/penicillin, 2 mM L-glutamine and 10% FBS at 37° C. in a 5% CO2 incubator. OCRL1^−/− (OCRL K.O) HK2 and HEK293T cells were prepared by GenScript, Inc., Piscataway, NJ, USA, and maintained under the same conditions as their normal counterparts. Characterization of these cell lines has been described before (Hsieh et al., PLoS One 10.1371/jounal.pone.0192635 (Feb. 14, 2018)).
Human dermal fibroblasts (12 h after seeding) were treated with the indicated drug (or vehicle) in 0.1% serum for the indicated time. […] At least 50 cells were quantified per experiment by tracing and measuring cell areas by using the magic wand tool in ImageJ software (National Institutes of Health (NIH), Bethesda, MD, USA).

In the case of `CC(C)n1nc(-c2ccc3oc(N)nc3c2)c2c(N)ncnc21` [INK128], the “ciliogenesis / PC assembly defects in LS cells” value in the series with LS patient cells [1] is recorded as “rescue ciliogenesis defects in LS cells”. In the series on mTOR pathway in LS cells, the “mTOR activation / phosphorylation” value is “able to decrease mTOR phosphorylation”.
The corresponding values for `C[C@@H]1COCCN1c1cc(=O)n2c(n1)N(Cc1cncc(Cl)c1)[C@H](C(F)(F)F)CC2` [SAR405] are “had no effect on ciliogenesis by LS cells” and “did not affect mTOR activation”.
Regarding `CC(C)c1c(C(=O)Nc2ccccc2)c(-c2ccccc2)c(-c2ccc(F)cc2)n1CC[C@@H](O)C[C@@H](O)CC(=O)O` [atorvastatin], in the series on LS patient cells [2], the “LS cell spreading phenotype” value was “mitigated to a certain extent the LS spreading phenotype”.
On to `CCCC[C@@H](C=O)NC(=O)[C@H](CC(C)C)NC(=O)OCc1ccccc1` [RhoA activator, calpeptin], for which the “LS cell spreading phenotype” value in the series with LS patient cells [2] is reported as “worsened the already impaired spreading ability of LS cells”. Also, the “cell spreading of normal cells” value with Normal fibroblasts is reported as “displayed a “LS-like” cell spreading phenotype”. The “proportion of de-attaching cells” value in the series on normal cells is given as “increased proportion of de-attaching cells”.
For the compound `COCc1c(C(C)C)nc(C(C)C)c(/C=C/[C@@H](O)C[C@@H](O)CC(=O)O)c1-c1ccc(F)cc1` [cerivastatin], in the series on LS patient cells [3], the “toxicity (viability and stress-induced changes in morphology)” value is “substantially toxic”.
`O=S(=O)(c1cccc2c(I)cccc12)N1CCCNCC1` [ML-7]: the “LS cell spreading phenotype” value with LS patient cells [2] was “able to mitigate the cell spreading phenotype”.
For `CNC(=O)Nc1ccc(-c2nc(N3CC4CCC(C3)O4)c3cnn(C4CCC5(CC4)OCCO5)c3n2)cc1` [WYE132], in the series with LS patient cells [1], the “ciliogenesis / PC assembly defects in LS cells” value is “rescue ciliogenesis defects in LS cells”. Further, the “autolysosome deficiencies (fraction of cells displaying autolysosomes)” value with HK2 OCRL1 K.O. cells is given as “can be rescued”. For the same compound, the “mTOR activation / phosphorylation” value in the series with mTOR pathway in LS cells is “able to decrease mTOR phosphorylation”.
In the case of `CSCC[C@H](NC(=O)c1ccc(NC[C@@H](N)CS)cc1-c1ccccc1)C(=O)O` [farnesylation inhibitor], in the series on LS patient cells [2], the “LS cell spreading phenotype” value is “rescue the cell spreading phenotype of LS patient cells”.
As for `CO[C@H]1C[C@@H]2CC[C@@H](C)[C@@](O)(O2)C(=O)C(=O)N2CCCC[C@H]2C(=O)O[C@H]([C@H](C)C[C@@H]2CC[C@@H](O)[C@H](OC)C2)CC(=O)[C@H](C)/C=C(\C)[C@@H](O)[C@@H](OC)C(=O)[C@H](C)C[C@H](C)/C=C/C=C/C=C/1C` [rapamycin], the “toxicity on LS cells (decrease in viability, MTT)” value with LS patient cells [3] (after 72 h-treatment) is 10-15%. For the same compound, the plasma levels in series [4] is on record as 10 nM.
In the case of `O=S(=O)(c1cccc2cnccc12)N1CCCNCC1` [fasudil], in the series with LS patient cells [2], the “LS cell spreading phenotype” value is on record as “in contrast to the ROCK-inhibitor fasudil, the MLCK-inhibitor ML-7 was able to mitigate”.
With `O=C(O)C[C@H](O)C[C@H](O)/C=C/c1c(C2CC2)nc2ccccc2c1-c1ccc(F)cc1` [pitavastatin], the “LS cell spreading phenotype” value with LS patient cells [2] was “mitigated to a certain extent the LS spreading phenotype”. In the series on LS patient cells [2] (LS spreading defects), the “ranking of statins: rescue effect over needed dose and toxicity” value is “rosuvastatin>pitavastatin>>>simvastatin and others”. Besides, the “toxicity (viability and stress-induced changes in morphology)” value in the series with LS patient cells [3] was “substantially toxic”.
Turning to C3 transferase [RhoA inhibitor], the “cell spreading phenotype in OCRL1 K.O. kidney cells” value in series [5] is given as “confirmed”. For the same compound, in the series with LS patient cells [2] (LS2 cells, FIG. 8A), the “cell spreading / membrane remodeling phenotype in cells from another LS patient” value is on record as “confirmed”. The “LS cell spreading phenotype” value with LS patient cells [2] is reported as “ameliorated the cell spread phenotype”.
